The source made the active and inactive calls.
Assays:
[1] = HEp-2 cell cytotoxicity, dose response, cytotoxicity control for RSV inhibitor project, HTS (AID 2410); format: functional; settings: human respiratory syncytial virus
[2] = molecular target: T1, Heat shock factor protein 1 (Mus musculus, UniProt P38532); experiment: inhibition of MG132-induced HSE-luciferase signal, confirmation, cell-based, NIH3T3, luminescence, dose retest (AID 2382); format: functional;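 also: NIH3T3 fibroblasts with HSF1-driven luciferase reporter stressed by proteasome inhibitor MG132; luminescence from HSF1-driven luciferase expression after 8 hours of MG132 stress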
T1 sequence (P38532 whole entry): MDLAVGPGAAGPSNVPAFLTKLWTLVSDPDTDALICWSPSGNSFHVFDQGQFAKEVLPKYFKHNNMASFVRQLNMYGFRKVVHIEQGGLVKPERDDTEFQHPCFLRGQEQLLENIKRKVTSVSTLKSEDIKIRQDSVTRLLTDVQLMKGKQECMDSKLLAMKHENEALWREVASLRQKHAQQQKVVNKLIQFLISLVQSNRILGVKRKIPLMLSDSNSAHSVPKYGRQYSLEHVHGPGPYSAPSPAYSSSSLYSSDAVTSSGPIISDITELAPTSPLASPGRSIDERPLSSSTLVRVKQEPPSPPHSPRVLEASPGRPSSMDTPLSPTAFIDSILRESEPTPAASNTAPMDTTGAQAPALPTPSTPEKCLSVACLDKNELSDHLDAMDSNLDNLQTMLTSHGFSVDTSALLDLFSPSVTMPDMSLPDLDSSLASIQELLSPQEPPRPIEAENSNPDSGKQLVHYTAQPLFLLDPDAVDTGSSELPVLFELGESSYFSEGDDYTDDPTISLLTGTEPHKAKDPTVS

Cytochrome P450 3A4 = Cytochrome P450 3A4 (Homo sapiens, UniProt P08684);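 also: CYP3A4 tested as one member of a cytochrome P450 panel screen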
Cytochrome P450 2D6 = Cytochrome P450 2D6 (Homo sapiens, UniProt P10635);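 also: CYP2D6 member of a cytochrome P450 panel assay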
Cytochrome P450 2C9 = Cytochrome P450 2C9 (Homo sapiens, UniProt P11712)
[3] = cytotoxicity toward NIH3T3 fibroblasts, dose response, counter-screen, cell-based, ATP luminescence, mouse fibroblasts (AID 2010); format: functional;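 also: cells exposed to compound for about 90 hours before reading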
[4] = inhibitors of intracellular T. cruzi replication, confirmation, NIH3T3 host cells, beta-gal luminescence (AID 2044); format: functional, cell-based;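 also: intracellular parasites grown in NIH/3T3 mouse fibroblasts as host cells; luminescent beta-galactosidase reporter signal from transgenic T. cruzi replicating inside host cells; inhibitors lower the luminescence signal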
Streptococcus = experiment: Group A Streptococcus viability loss, dose response, counter-screen for streptokinase expression inhibitor project, luminescence, BacTiterGlo (AID 1915); format: functional, organism-based;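 also: potency for reduction of bacterial viability or growth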
[5] = test system: Streptococcus sp. 'group A'; experiment: growth inhibition of control SK(-) GAS strain, dose response, counter-screen for streptokinase expression inhibitor project, luminescence, kanamycin, BacTiterGlo, confirmation (AID 1900); format: functional, organism-based
Streptokinase A = molecular target: T2, Streptokinase A (Streptococcus pyogenes serotype M1, UniProt P10520); experiment: S. pyogenes streptokinase expression inhibitors, potency, dose response, plasminogen activation absorbance, OD405 (AID 1914); format: functional, Streptococcus pyogenes M1 GAS;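 also: secreted streptokinase activity via plasminogen activation per viability signal from cell pellet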
T2 sequence (P10520 whole entry): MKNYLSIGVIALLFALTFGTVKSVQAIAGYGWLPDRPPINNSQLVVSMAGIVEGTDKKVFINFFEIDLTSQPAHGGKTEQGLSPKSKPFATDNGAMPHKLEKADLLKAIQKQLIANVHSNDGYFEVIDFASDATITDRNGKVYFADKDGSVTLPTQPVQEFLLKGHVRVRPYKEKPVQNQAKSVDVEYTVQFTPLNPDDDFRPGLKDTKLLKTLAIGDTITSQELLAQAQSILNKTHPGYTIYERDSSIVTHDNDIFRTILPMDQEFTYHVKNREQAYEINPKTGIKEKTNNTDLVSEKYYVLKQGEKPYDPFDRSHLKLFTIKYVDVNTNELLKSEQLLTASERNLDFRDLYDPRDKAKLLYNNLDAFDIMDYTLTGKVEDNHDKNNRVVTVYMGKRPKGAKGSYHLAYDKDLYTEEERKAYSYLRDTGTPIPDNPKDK

Cytochrome P450 1A2 = molecular target: T3, Cytochrome P450 1A2 (Homo sapiens, UniProt P05177);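 also: PubChem cytochrome P450 panel assay, CYP1A2 panel member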
T3 sequence (P05177 whole entry): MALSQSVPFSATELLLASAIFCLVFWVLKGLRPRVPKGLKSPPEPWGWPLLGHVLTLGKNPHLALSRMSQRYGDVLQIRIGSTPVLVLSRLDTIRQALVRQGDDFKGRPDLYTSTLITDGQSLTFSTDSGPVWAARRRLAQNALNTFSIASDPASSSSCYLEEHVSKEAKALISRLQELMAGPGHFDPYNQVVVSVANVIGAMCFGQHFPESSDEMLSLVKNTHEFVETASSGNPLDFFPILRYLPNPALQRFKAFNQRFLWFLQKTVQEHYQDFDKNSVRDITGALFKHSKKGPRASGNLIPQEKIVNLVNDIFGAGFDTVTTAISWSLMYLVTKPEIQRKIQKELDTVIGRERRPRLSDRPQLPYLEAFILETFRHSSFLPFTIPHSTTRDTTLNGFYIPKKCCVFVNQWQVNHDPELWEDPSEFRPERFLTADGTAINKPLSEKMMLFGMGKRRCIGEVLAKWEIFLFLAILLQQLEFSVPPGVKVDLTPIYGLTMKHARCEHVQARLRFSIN

Cytochrome P450 2C19 = Cytochrome P450 2C19 (Homo sapiens, UniProt P33261); experiment: Cytochrome panel assay with activity outcomes. Panel member name: p450-cyp2c19 Compounds with AC50 equal or less than 10 uM are considered active; format: functional; settings: read-out: AC50
Chain of Cytochrome P450 2C19 (P33261 whole entry): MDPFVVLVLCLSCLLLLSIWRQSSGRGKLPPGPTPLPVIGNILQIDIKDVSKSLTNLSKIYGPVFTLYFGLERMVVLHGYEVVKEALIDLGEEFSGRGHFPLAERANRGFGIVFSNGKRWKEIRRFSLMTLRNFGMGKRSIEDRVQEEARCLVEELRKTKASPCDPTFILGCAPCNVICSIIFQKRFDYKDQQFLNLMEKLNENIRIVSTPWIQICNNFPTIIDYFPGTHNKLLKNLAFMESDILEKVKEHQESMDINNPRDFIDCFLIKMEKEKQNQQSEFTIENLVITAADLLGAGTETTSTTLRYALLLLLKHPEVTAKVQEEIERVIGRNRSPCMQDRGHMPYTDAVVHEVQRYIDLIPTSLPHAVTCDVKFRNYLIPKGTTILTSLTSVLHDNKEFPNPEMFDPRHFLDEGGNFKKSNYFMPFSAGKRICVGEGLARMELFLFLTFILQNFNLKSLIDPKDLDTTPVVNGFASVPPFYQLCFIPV

Chain of Cytochrome P450 2D6 (P10635 whole entry): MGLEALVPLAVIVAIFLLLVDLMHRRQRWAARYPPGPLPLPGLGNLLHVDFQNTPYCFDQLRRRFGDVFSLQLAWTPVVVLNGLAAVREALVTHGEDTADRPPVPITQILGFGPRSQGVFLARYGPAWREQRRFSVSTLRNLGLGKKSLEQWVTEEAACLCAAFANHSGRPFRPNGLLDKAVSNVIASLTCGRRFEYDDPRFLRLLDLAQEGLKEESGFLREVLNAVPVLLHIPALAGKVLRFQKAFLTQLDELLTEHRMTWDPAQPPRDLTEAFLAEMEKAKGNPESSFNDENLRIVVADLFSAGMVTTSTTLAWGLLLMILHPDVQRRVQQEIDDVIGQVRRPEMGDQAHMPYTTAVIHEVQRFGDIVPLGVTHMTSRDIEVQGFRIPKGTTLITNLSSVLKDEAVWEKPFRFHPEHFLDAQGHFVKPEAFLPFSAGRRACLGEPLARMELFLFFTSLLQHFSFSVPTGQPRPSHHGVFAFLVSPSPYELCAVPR
Chain of Cytochrome P450 2C9 (P11712 whole entry): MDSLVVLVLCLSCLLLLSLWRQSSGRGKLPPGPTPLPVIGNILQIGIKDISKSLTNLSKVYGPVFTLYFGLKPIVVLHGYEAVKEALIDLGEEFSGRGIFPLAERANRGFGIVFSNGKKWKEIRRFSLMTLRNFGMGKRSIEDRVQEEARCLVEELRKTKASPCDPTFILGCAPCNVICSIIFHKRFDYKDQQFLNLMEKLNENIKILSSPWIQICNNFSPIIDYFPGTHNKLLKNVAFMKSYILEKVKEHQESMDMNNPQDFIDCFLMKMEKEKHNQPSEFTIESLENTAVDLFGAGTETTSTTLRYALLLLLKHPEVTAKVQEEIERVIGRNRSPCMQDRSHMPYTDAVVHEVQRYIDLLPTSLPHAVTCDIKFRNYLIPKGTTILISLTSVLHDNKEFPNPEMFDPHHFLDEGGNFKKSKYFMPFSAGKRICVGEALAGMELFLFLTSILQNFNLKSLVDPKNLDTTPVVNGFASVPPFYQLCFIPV
Chain of Cytochrome P450 3A4 (P08684 whole entry): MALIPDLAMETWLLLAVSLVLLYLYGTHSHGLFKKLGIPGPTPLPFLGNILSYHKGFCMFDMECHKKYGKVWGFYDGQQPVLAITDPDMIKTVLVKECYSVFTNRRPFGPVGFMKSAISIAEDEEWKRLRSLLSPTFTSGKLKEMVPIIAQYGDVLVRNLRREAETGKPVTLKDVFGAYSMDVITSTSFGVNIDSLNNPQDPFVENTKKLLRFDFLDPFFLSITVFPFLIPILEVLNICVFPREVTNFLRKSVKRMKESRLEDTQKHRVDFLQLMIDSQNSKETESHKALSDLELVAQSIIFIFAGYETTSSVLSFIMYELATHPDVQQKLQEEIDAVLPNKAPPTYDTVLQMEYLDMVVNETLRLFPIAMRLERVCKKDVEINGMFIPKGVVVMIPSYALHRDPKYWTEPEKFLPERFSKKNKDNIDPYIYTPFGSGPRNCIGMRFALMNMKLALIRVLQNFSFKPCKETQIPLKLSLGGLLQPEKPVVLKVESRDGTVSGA

C=CC/N=C1\S/C(=C\c2ccc(Cl)cc2)C(=O)N1CC=C
CC50 [1]: 44.3 µM (active)

COc1ccc(CN2/C(=N/C(=O)CCC3CCCC3)SC3CS(=O)(=O)CC32)cc1 (stereo unspecified)
EC50 [2]: > 195 µM (not active)

CC1CCN(S(=O)(=O)c2ccc(C(=O)Nc3nnc(-c4ccccn4)o3)cc2)CC1
EC50 [2]: 45.5 µM (active)

COc1ccc(Nc2nc(N)nc(CSc3n[nH]c(-c4ccccc4)n3)n2)cc1
AC50 (Cytochrome P450 3A4): 3.98 µM (inconclusive)
AC50 (Cytochrome P450 2D6): 3.55 µM (inconclusive)
AC50 (Cytochrome P450 2C9): 12.6 µM (inconclusive)

O=c1c(-c2ccccc2)nc2cnc(N3CCNCC3)nc2n1-c1ccccc1
AC50 (Cytochrome P450 3A4): 20 µM (inconclusive)

O=C(Nc1ccc(N2CCCC2)c(Cl)c1)c1ccc(Br)o1
CC50 [1]: 30.6 µM (active)
EC50 [3]: > 60 µM (not active)
EC50 [4]: 1.63 µM (active)

O=C(Cc1ccccc1)N/N=C/c1cc(Br)c(Br)o1
AC50 (Cytochrome P450 3A4): 28.2 µM (inconclusive)

Fc1ccc(Cn2cccc2C2=NC(c3ccccc3)CO2)cc1 (stereo unspecified)
EC50 (Streptococcus): > 150 µM (not active)
EC50 [5]: 16 µM (active)
EC50 (Streptokinase A): 23.8 µM (active)

CCc1nc2ccc(C(=O)O)cc2nc1CC
EC50 [2]: 6.93 µM (active)

C1CCC(Nc2nnnn2C2CCCCC2)CC1
EC50 [2]: > 195 µM (not active)

O=C(O)c1c(Cl)c(Cl)c(Cl)c(Cl)c1C(=O)Nc1ccc2cn[nH]c2c1
AC50 (Cytochrome P450 3A4): 3.98 µM (inconclusive)
AC50 (Cytochrome P450 2D6): 3.98 µM (inconclusive)

Cc1ccc2nc(NC(=O)c3ccc(NS(=O)(=O)c4cccs4)cc3)sc2c1
CC50 [1]: 25.1 µM (active)

CNc1oc(-c2ccc(Cl)cc2)nc1C#N
AC50 (Cytochrome P450 3A4): 14.1 µM (inconclusive)
AC50 (Cytochrome P450 2D6): 22.4 µM (inconclusive)
AC50 (Cytochrome P450 2C9): 8.91 µM (inconclusive)

O=C(O)c1cccc(NC(=S)N/N=C/c2cccnc2)c1
EC50 [2]: > 195 µM (not active)

CSc1cccc(-c2nnc(NC(=O)c3cccc(N4C(=O)CCC4=O)c3)o2)c1
EC50 (Streptococcus): 131 µM (active)
EC50 [5]: 4.88 µM (active)
EC50 (Streptokinase A): > 150 µM (not active)

CCOC(=O)c1cnn(-c2nc(-c3ccccc3F)cs2)c1C(F)(F)F
EC50 (Streptococcus): 23.8 µM (active)
EC50 [5]: 17.9 µM (active)
EC50 (Streptokinase A): 34.3 µM (active)

CC1(C)CC(=O)c2cc(OCC(=O)N3CCN(c4ccccc4F)CC3)ccc2O1
EC50 [2]: > 195 µM (not active)

COC(=O)c1cc(-c2cccc(OC)c2)c2c(=O)[nH]c(=O)n(C)c2n1
EC50 (Streptococcus): 11.7 µM (active)
EC50 [5]: 6.29 µM (active)
EC50 (Streptokinase A): > 150 µM (not active)

Cc1nc2cnc(Oc3ccccc3)nc2n(CCC#N)c1=O
AC50 (Cytochrome P450 3A4): 25.1 µM (inconclusive)
AC50 (Cytochrome P450 1A2): 20 µM (inconclusive)

CC(C)c1ccc(NC2(C#N)C(=O)Nc3ccccc32)cc1 (stereo unspecified)
EC50 [2]: > 195 µM (not active)

O=C(COC(=O)C1=COCCO1)Nc1ccc2c(c1)OCO2
EC50 [2]: > 195 µM (not active)

Cc1ccccc1C(=O)Nc1scc(-c2ccc(Br)cc2)c1C(=O)O
EC50 (Streptococcus): 7.36 µM (active)
EC50 [5]: 3.46 µM (active)
EC50 (Streptokinase A): > 150 µM (not active)

Cc1cccc(-c2nnc(NC(=O)c3cccs3)s2)c1
EC50 [2]: > 195 µM (not active)

Cc1nc2ccccc2c(=O)n1NC(=O)c1ccccc1Cl
AC50 (Cytochrome P450 3A4): 22.4 µM (inconclusive)
AC50 (Cytochrome P450 1A2): 15.8 µM (inconclusive)

Cc1ccc2nc(-c3ccccc3)c(CN(C)C)c(O)c2c1
AC50 (Cytochrome P450 2C9): 12.6 µM (inconclusive)
AC50 (Cytochrome P450 2C19): 20 µM (inconclusive)
AC50 (Cytochrome P450 1A2): 15.8 µM (inconclusive)

— ChEMBL document CHEMBL1201862, “PubChem BioAssay data set” (2004)
